#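 Growth conditions: 96-well plates. Treatment: test compound, 48 hours, 5 concentrations. Analysis: linear interpolation between bracketing concentrations; unreached endpoints set to highest concentration. The concentration for full growth arrest is given as TGI.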
# How the values were obtained:
# Test in all cases: NCI-60 cell line screen, 48 h
# [1] = system: BT-549 breast
# [2] = system: HCC-2998 colon
# [3] = system: HOP-92 NSCLC
# [4] = system: MDA-MB-231 breast
# [5] = system: NCI/ADR-RES ovarian
# [6] = system: OVCAR-3 ovarian
# [7] = system: OVCAR-4 ovarian
# [8] = system: PC-3 prostate
# [9] = system: SNB-19 CNS
# [10] = system: SR leukemia
# [11] = system: SW-620 colon
# [12] = system: T-47D breast
# [13] = system: UO-31 renal
Compound,TGI [1] [µM],TGI [2] [µM],TGI [3] [µM],TGI [4] [µM],TGI [5] [µM],TGI [6] [µM],TGI [7] [µM],TGI [8] [µM],TGI [9] [µM],TGI [10] [µM],TGI [11] [µM],TGI [12] [µM],TGI [13] [µM]
O=C1c2ccccc2-c2nnc3c(c21)Cc1ccccc1C3,> 10,> 10,> 10,> 10,> 10,> 10,> 10,> 10,> 10,> 10,> 10,> 10,> 10
C[N+]1(C)C2CC(OC(=O)C(CO)c3ccccc3)CC1C1OC12 (stereo unspecified),> 100,,,> 100,> 100,> 100,> 100,> 100,> 100,> 100,> 100,> 100,> 100
CCNC1=C(NC(=O)c2ccc(F)cc2)C(=O)c2ccccc2C1=O,> 100,> 100,> 100,> 100,> 100,85.7,> 100,> 100,> 100,> 100,> 100,> 100,
C=C1CC[C@](C)(O)[C@@]2(C)CC[C@H]3C(=C(C)C)C(=O)C[C@]3(C)C[C@H]12,> 50,> 50,> 50,> 50,> 50,> 50,> 50,> 50,> 50,41.1,> 50,> 50,> 50
C#CCOC(=O)C(N)CC(N)=O (stereo unspecified),> 100,> 100,> 100,> 100,> 100,> 100,> 100,> 100,> 100,> 100,> 100,> 100,> 100
Cc1ccc2c(c1C)C(=O)C1(C2)Cc2ccc3c(c2C1=O)CCC3 (stereo unspecified),> 100,> 100,> 100,> 100,> 100,> 100,> 100,> 100,> 100,> 100,> 100,> 100,> 100
CC1(C)CNC(=O)C2(CCCO2)CNC(C)(C)CNC(=O)C2(CCCO2)CN1 (stereo unspecified),> 10,> 10,> 10,> 10,> 10,> 10,> 10,> 10,> 10,> 10,> 10,> 10,
Cc1ccc(-c2n[nH]c(=O)n2/N=C\c2ccccc2O)cc1,> 100,> 100,> 100,> 100,> 100,> 100,> 100,> 100,> 100,> 100,> 100,> 100,> 100
C=C1c2nc3ccccc3n2C=C(c2ccc(OC)cc2)N1c1ccc(OCCN2CCCCC2)cc1,> 100,33.6,> 82,> 64.7,> 86.4,> 100,> 100,> 51.3,> 100,28.6,52.3,> 100,> 48.2
CCCN(CCC)C(=S)Sc1nc(C)nc(N2CCN(c3nc(C)nc(SC(=S)N(CCC)CCC)c3[N+](=O)[O-])CC2)c1[N+](=O)[O-],26.9,43.6,22.4,20.3,> 100,,76.5,53.4,> 88.3,> 81.9,17.1,39.9,37.4
NC(N)=N/N=C/c1c(-c2ccccc2[N+](=O)[O-])nc2sccn12,> 100,,> 100,33.4,> 100,> 100,> 100,71.1,77.4,35.1,38,59,90.3
CC(C#N)(c1ccccc1)N(CCc1ccccc1)C(=O)Oc1ccccc1 (stereo unspecified),> 100,> 100,65,> 100,> 100,> 100,> 100,> 100,> 100,> 100,> 100,> 100,> 100
CC1=C(O)C(=O)C=C2C1=CC=C1[C@@]2(C)CC[C@@]2(C)C3C[C@@H](C)C(=O)[C@@H](O)[C@]3(C)CC[C@]12C (stereo partly specified),3.4,9.65,3.87,3.75,9.55,3.6,11,4.23,9.23,1.3,2.32,3.44,3.53
C=CCN1C(=O)CC2[C@@H]3CCc4cc(O)ccc4C3CC[C@]2(C)C1=O (stereo partly specified),> 10,> 10,> 10,> 10,> 10,> 10,> 10,> 10,> 10,> 10,> 10,> 10,> 10
Clc1ccc(/C=C/c2nc(-c3ccccc3)cn3c2nc2ccccc23)cc1Cl,> 100,> 100,> 100,> 100,> 100,> 100,> 100,> 100,> 100,> 100,> 100,> 100,> 100
COC(=O)C(Cc1ccccc1)NC(=O)CSc1nnc(COc2ccc(Cl)cc2)n1-c1ccccc1 (stereo unspecified),69.6,31.8,76.7,41.8,55.2,,64.9,59,> 100,> 100,> 100,> 100,3.34
N#Cc1cc2c(cc1C#N)SCCSCCCSCCS2,31.2,> 100,7.05,29,> 100,> 100,> 100,> 82.8,22.9,> 70.3,> 100,> 80.8,> 90.6
CC(C)=CCC[C@@H](C)[C@H]1CC[C@@]2(C)[C@@H]3CC[C@H]4C(C)(C)[C@@H](O)CC[C@@]45C[C@@]35CC[C@]12C,55.6,> 31.6,44.2,> 64.6,62.1,> 100,> 100,> 100,> 100,> 67.1,> 100,> 100,> 66.2
O=C1C=CC2(C=C1)O[C@H](COCc1ccccc1)[C@@H](COCc1ccccc1)O2,2.37,,2.64,12.8,3.71,6.32,4.66,4.74,12.3,0.849,0.765,6.99,2.91
COc1cc2nc(-c3cccs3)nc(Nc3cccc([N+](=O)[O-])c3)c2cc1OC,39.7,,,35.9,46.9,36.6,> 100,37.8,33.6,34.2,50.7,38.6,43.9
CCOC(=O)c1nc2ccccc2nc1Oc1cc(OC)cc(OC)c1,> 100,,> 100,> 100,> 100,> 100,> 100,> 100,> 100,> 100,> 100,> 100,> 100
O=C1c2cc(Br)ccc2-c2ccc3c4ccc5c6c(ccc(c7ccc1c2c73)c64)C(=O)c1cc(Br)ccc1-5,> 100,> 100,> 100,> 100,> 100,> 100,,> 100,> 100,> 100,> 100,> 100,> 100
CCC(C)N1CN(c2ccccc2)C2(CCN(CC3COc4ccccc4O3)CC2)C1=O (stereo unspecified),31.6,38.8,,> 100,44.1,56.2,,87.3,> 100,76,58.8,51.3,30.2
COc1cccc(OC)c1C1ON=C(c2ccccc2)N1C12CC3CC(CC(C3)C1)C2 (stereo unspecified),> 100,> 100,88.4,> 100,> 100,> 100,,> 100,> 100,> 100,> 100,> 100,> 100
O=C1CSCC(=O)Nc2ccccc2N1,> 100,,> 100,> 100,> 100,> 100,> 100,> 100,> 100,> 100,> 100,> 100,> 100
OCC(O)COCn1cc(Cn2ncc3c(SCc4ccccc4)ncnc32)nn1 (stereo unspecified),> 100,> 100,> 100,> 100,> 100,> 100,> 100,> 100,> 100,,> 100,> 100,> 100
